Experimental data published in US20170233413A1, “SUBSTITUTED ANNULATED PYRIMIDINES AND USE THEREOF” (Bayer Pharma Aktiengesellschaft, priority 2014, published 2017).
pIC50: −log10 of the molar value.

Experiments:
[1] = biological target: T1, human phosphodiesterase 5 (PDE 5) (Homo sapiens, UniProt O76074); assay: Inhibition of human phosphodiesterase 5 (PDE 5); format: biochemical; conditions: PDE 5 preparation from human platelets; in some cases means of individual determinations
T1 construct: PDE 5 preparations are obtained from human platelets by disruption; from tissue; host or cells: human platelets
Method in brief: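 Enzyme partially purified from human platelets by Mono Q ion exchange, diluted so that under 70% of substrate converts. [8-3H]cGMP at 0.025 μCi per well in Tris pH 7.5 with MgCl2/EDTA, 60 min at room temperature, yttrium SPA bead read-out. Final compound concentrations 4–0.0018 μM; IC50 from concentration–inhibition plot.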

[2] = biological target: T2, recombinant guanylate cyclase reporter cell line (Rattus norvegicus, UniProt P19686+P20595); assay: Effect on a recombinant guanylate cyclase reporter cell line; format: cell-based; conditions: MEC = minimum effective concentration; in some cases means of individual determinations
T2 construct: expressed in transfected cells
T2 sequence (P19686 1-690): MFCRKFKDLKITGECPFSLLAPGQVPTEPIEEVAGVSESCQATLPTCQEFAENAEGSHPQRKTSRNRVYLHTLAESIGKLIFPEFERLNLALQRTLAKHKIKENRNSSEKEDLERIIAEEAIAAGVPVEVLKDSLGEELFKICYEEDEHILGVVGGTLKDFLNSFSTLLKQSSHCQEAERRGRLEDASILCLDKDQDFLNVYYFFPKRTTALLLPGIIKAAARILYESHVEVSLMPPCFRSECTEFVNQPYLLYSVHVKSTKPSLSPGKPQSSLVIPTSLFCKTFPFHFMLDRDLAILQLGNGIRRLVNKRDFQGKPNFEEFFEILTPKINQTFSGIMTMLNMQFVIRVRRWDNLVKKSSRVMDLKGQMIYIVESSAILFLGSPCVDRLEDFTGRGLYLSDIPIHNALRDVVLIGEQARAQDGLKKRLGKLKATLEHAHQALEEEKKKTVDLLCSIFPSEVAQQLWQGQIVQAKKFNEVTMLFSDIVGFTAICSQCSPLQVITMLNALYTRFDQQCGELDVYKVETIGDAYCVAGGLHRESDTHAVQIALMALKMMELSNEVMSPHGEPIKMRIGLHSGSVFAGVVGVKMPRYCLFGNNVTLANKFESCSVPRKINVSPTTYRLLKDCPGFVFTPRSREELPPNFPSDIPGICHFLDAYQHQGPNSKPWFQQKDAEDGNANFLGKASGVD
T2 sequence (P20595 1-619): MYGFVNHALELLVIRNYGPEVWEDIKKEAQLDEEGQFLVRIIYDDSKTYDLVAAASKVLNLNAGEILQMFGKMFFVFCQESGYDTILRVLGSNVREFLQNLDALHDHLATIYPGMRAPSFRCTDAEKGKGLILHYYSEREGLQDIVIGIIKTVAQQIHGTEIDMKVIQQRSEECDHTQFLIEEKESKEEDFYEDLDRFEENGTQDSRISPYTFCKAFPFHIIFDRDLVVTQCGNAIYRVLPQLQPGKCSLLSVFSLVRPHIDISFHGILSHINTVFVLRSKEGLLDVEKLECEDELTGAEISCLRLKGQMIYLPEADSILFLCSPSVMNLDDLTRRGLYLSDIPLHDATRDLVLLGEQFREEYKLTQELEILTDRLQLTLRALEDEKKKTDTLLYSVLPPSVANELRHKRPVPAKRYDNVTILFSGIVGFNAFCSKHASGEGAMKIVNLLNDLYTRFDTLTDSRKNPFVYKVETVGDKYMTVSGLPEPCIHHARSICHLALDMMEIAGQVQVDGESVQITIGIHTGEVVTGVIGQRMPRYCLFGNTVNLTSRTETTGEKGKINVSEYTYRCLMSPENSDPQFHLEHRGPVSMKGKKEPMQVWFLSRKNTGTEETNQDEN
Method in brief: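 Cellular activity measured in a recombinant rat soluble guanylate cyclase reporter cell line. Values are minimum effective concentration (MEC), some given as means of individual determinations.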

Row | pIC50 [1] | MEC [2] | Structure (SMILES)
1 | 6.77 | 2 µM | CC1(C(F)(F)F)C(=O)Nc2nc(-c3nn(Cc4ncccc4F)c4ncc(F)cc34)nc(C(N)=O)c21 (single isomer, unassigned; ent-2) [Example 22, ent-2-{5-Fluoro-1-[(3-fluoropyridin-2-yl)methyl]-1H-pyrazolo[3,4-b]pyridin-3-yl}-5-methyl-6-oxo-5-(trifluoromethyl)-6,7-dihydro-5H-pyrrolo[2,3-d]pyrimidine-4-carboxamide (enantiomer A)]
2 | 7.70 | 0.065 µM | CC1(C)C(=O)Nc2nc(-c3nn(Cc4ccccc4F)c4ncccc34)nc(C(N)=O)c21 [Example 1, 2-[1-(2-Fluorobenzyl)-1H-pyrazolo[3,4-b]pyridin-3-yl]-5,5-dimethyl-6-oxo-6,7-dihydro-5H-pyrrolo[2,3-d]pyrimidine-4-carboxamide]
3 | 6.66 | 10 µM | Cc1nc2c(cc1F)c(-c1nc3c(c(C(N)=O)n1)C(C)(C(F)(F)F)C(=O)N3)nn2Cc1ncccc1F (single isomer, unassigned; ent-2) [Example 19, ent-2-{5-Fluoro-1-[(3-fluoropyridin-2-yl)methyl]-6-methyl-1H-pyrazolo[3,4-b]pyridin-3-yl}-5-methyl-6-oxo-5-(trifluoromethyl)-6,7-dihydro-5H-pyrrolo[2,3-d]pyrimidine-4-carboxamide (enantiomer A)]
4 | 7.34 | 1 µM | CC1(C)C(=O)Nc2nc(-c3nn(Cc4ccccc4F)c4ncccc34)nc(C(=O)Nc3nccs3)c21 [Example 72, 2-[1-(2-fluorobenzyl)-1H-pyrazolo[3,4-b]pyridin-3-yl]-5,5-dimethyl-6-oxo-N-(1,3-thiazol-2-yl)-6,7-dihydro-5H-pyrrolo[2,3-d]pyrimidine-4-carboxamide]
5 | 8.05 | 0.3 µM | CC1(C)C(=O)Nc2nc(-c3nn(Cc4ccccc4F)c4ncccc34)nc(C(=O)Nc3cccnc3)c21 [Example 89, 2-[1-(2-fluorobenzyl)-1H-pyrazolo[3,4-b]pyridin-3-yl]-5,5-dimethyl-6-oxo-N-(pyridin-3-yl)-6,7-dihydro-5H-pyrrolo[2,3-d]pyrimidine-4-carboxamide]
6 | 7.13 | 1 µM | C[S+]([O-])CCNC(=O)c1nc(-c2nn(Cc3ccccc3F)c3ncccc23)nc2c1C(C)(C)C(=O)N2 (stereo not drawn) [Example 64, 2-[1-(2-fluorobenzyl)-1H-pyrazolo[3,4-b]pyridin-3-yl]-5,5-dimethyl-N-[2-(methylsulfinyl)ethyl]-6-oxo-6,7-dihydro-5H-pyrrolo[2,3-d]pyrimidine-4-carboxamide]
7 | 7.89 | 0.1 µM | CC(CC1CC1)NC(=O)c1nc(-c2nn(Cc3ccccc3F)c3ncccc23)nc2c1C(C)(C)C(=O)N2 (racemic) [Example 68, rac-N-(1-cyclopropylpropan-2-yl)-2-[1-(2-fluorobenzyl)-1H-pyrazolo[3,4-b]pyridin-3-yl]-5,5-dimethyl-6-oxo-6,7-dihydro-5H-pyrrolo[2,3-d]pyrimidine-4-carboxamide]
8 | 7.68 | 0.1 µM | CC1(C)C(=O)Nc2nc(-c3nn(Cc4ccccc4F)c4ncccc34)nc(C(=O)NCc3ccncc3)c21 [Example 118, 2-[1-(2-fluorobenzyl)-1H-pyrazolo[3,4-b]pyridin-3-yl]-5,5-dimethyl-6-oxo-N-(pyridin-4-ylmethyl)-6,7-dihydro-5H-pyrrolo[2,3-d]pyrimidine-4-carboxamide]
9 | 7.52 | 1 µM | CC(C)C(C)NC(=O)c1nc(-c2nn(Cc3ccccc3F)c3ncccc23)nc2c1C(C)(C)C(=O)N2 (racemic) [Example 133, rac-2-[1-(2-fluorobenzyl)-1H-pyrazolo[3,4-b]pyridin-3-yl]-5,5-dimethyl-N-(3-methylbutan-2-yl)-6-oxo-6,7-dihydro-5H-pyrrolo[2,3-d]pyrimidine-4-carboxamide]
10 | 7.41 | 0.3 µM | Cn1cnc(NC(=O)c2nc(-c3nn(Cc4ccccc4F)c4ncccc34)nc3c2C(C)(C)C(=O)N3)n1 [Example 109, 2-[1-(2-fluorobenzyl)-1H-pyrazolo[3,4-b]pyridin-3-yl]-5,5-dimethyl-N-(1-methyl-1H-1,2,4-triazol-3-yl)-6-oxo-6,7-dihydro-5H-pyrrolo[2,3-d]pyrimidine-4-carboxamide]
11 | 6.77 | 0.3 µM | Cc1nnc(NC(=O)c2nc(-c3nn(Cc4ccccc4F)c4ncccc34)nc3c2C(C)(C)C(=O)N3)o1 [Example 71, 2-[1-(2-fluorobenzyl)-1H-pyrazolo[3,4-b]pyridin-3-yl]-5,5-dimethyl-N-(5-methyl-1,3,4-oxadiazol-2-yl)-6-oxo-6,7-dihydro-5H-pyrrolo[2,3-d]pyrimidine-4-carboxamide]
12 | 6.96 | 0.01 µM | CN(CC1CC1)C(=O)c1nc(-c2nn(Cc3ccccc3F)c3ncc(F)cc23)nc2c1C(C)(C)C(=O)N2 [Example 53]
13 | 8.00 | 0.1 µM | CC1(C)C(=O)Nc2nc(-c3nn(Cc4ccccc4F)c4ncccc34)nc(C(=O)NCc3ccco3)c21 [Example 69, 2-[1-(2-fluorobenzyl)-1H-pyrazolo[3,4-b]pyridin-3-yl]-N-(furan-2-ylmethyl)-5,5-dimethyl-6-oxo-6,7-dihydro-5H-pyrrolo[2,3-d]pyrimidine-4-carboxamide]
14 | 7.42 | 0.3 µM | CCCCCNC(=O)c1nc(-c2nn(Cc3ccccc3F)c3ncccc23)nc2c1C(C)(C)C(=O)N2 [Example 131, 2-[1-(2-Fluorobenzyl)-1H-pyrazolo[3,4-b]pyridin-3-yl]-5,5-dimethyl-6-oxo-N-pentyl-6,7-dihydro-5H-pyrrolo[2,3-d]pyrimidine-4-carboxamide]
15 | 7.09 | 2 µM | CC1(C)C(=O)Nc2nc(-c3nn(Cc4ncccc4F)c4ncc(F)cc34)nc(C(N)=O)c21 [Example 8, 2-{5-fluoro-1-[(3-fluoropyridin-2-yl)methyl]-1H-pyrazolo[3,4-b]pyridin-3-yl}-5,5-dimethyl-6-oxo-6,7-dihydro-5H-pyrrolo[2,3-d]pyrimidine-4-carboxamide]
